This is an account of results in patent US6235514A, “Nucleic acid molecules encoding isopentenyl monophosphate kinase, and methods of use” (Washington State University Research Foundation, priority 1999, dated 2001).

Several values for one entry are separate records, joined by “and”; a condition that tells them apart may be missing. Identical values can stand only once.

Assay [1] relates to isolated peppermint oil gland secretory cells. Description: Feeding studies with isolated peppermint oil gland secretory cells, incorporation into terpenoids. Type of assay: cell-based, peppermint (Mentha x piperita L. cv. Black Mitcham). The settings on record: radiolabeled precursor, 23° C., 2 h; average of two experiments; includes geraniol and farnesol. As to the method: Isolation of and Feeding Studies with Peppermint Oil Gland Secretory Cells: Leaves (15-20 g; <10 mm in length) were excised from peppermint plants (Mentha x piperita L. cv. Black Mitcham) and the oil gland secretory cells were isolated by the glass bead abrasion method (McCaskill, D. & Croteau, R., Planta, 197:49-56 [1995]). Following isolation, the secretory cells were washed with 25 mM Tris/HCl buffer (pH 7.3) containing 200 mM sorbitol, 10 mM sucrose, 5 mM MgCl2, 10 mM KCl, 1 mM ethyleneglycol bis(β-aminoethyl ether), 8.5 mM Na2 HPO4, and 0.1 mM Na4 P2 O7, and then suspended in the same buffer supplemented with 2 mM ATP, 0.1 mM NADPH, 0.1 mM NAD^+, 5 mM phosphoenol pyruvate, and 5 mM glucose-6-phosphate. Cell density was determined using a hemocytometer and was adjusted to 1-2×10^5 cellular disks (each containing eight secretory cells) per milliliter suspension. Aliquots (1-1.5 ml) were transferred to 15 ml screw-cap glass vials, and the suspended cells were aerated and incubated at 23° C. for 2 h. At the end of the incubation period, the suspension was extracted three times with 1 ml diethyl ether. The combined organic extract was washed with 1 ml of 1 M Na2 CO3 and dried over Na2 SO4. An aliquot was removed for liquid scintillation counting and, to the remainder, authentic standards (10-50 μg each) of isopentenol, dimethylallyl alcohol, geraniol, farnesol, limonene, menthone, menthol, pulegone, humulene, and caryophyllene were added. These extracts were then slowly concentrated on ice under a gentle stream of N2 to ~200 μl, and were then transferred to conical glass vials and further concentrated to 5-10 μl at 20° C. in preparation for chromatographic analysis.
Radio-GLC Analysis of Peppermint Isoprenoids: Radio-GC was performed according to a published method (Croteau, R. & Satterwhite, D. M. J. Chromatog. 500:349-354 [1990]) with several modifications; 0.25 mm i.d.×30 m AT 1000 fused silica column with 0.2 μm film thickness (Alltech); helium carrier gas at 3-6 ml/min^-1; temperature program from 70 to 200° C. at 5° C./min^-1; injector at 200° C.; thermal conductivity detector at 220° C. and 140 mA; propane quench gas at 10-15 ml/min^-1. The relative peak area corresponding to each biosynthetic product was converted to dpm as a fraction of the total radioactivity determined by liquid scintillation counting prior to concentration. The absolute amount of each component formed was then calculated based on the specific activity of the corresponding radiolabeled substrate.

The target of assay [2] is T1, recombinant peppermint kinase (isopentenyl monophosphate kinase, SEQ ID NO:2) (Mentha piperita, UniProt P56848).
T1 sequence (P56848 98-405): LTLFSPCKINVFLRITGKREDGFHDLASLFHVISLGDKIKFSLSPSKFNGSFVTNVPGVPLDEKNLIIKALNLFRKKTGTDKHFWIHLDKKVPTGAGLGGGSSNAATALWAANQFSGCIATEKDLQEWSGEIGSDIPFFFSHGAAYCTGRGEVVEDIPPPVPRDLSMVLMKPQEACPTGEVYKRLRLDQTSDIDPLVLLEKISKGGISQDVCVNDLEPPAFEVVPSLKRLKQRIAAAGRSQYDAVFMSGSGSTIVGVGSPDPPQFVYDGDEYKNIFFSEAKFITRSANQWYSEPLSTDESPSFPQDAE
Description: Kinase assay, recombinant peppermint IP kinase, crude extracts of transformed E. coli. Type of assay: biochemical, peppermint (Mentha x piperita). Particulars: crude extract, standard assay conditions.

Assay [3] addresses E. coli IP kinase (ychB, SEQ ID NO:6) (Escherichia coli, UniProt P62615). Description: Kinase assay, recombinant E. coli IP kinase (induced), crude extracts. Type of assay: biochemical. The settings on record: crude extract, induced with 0.02% arabinose; rates are minimums.
Assay [4] addresses E. coli IP kinase (ychB, SEQ ID NO:6), partially purified (Escherichia coli, UniProt P62615). The assay is described as follows: Kinase assay, partially purified recombinant E. coli IP kinase. Particulars: for Phosphorylating activity with substrate, in words, partially purified E. coli kinase: partially purified protein; for Cofactor / phosphate donor requirement of kinase activity: IP as substrate, partially purified E. coli kinase. Type of assay: biochemical.

In assay [5] the test system is E. coli background (repressed, 0.02% glucose). Description: Kinase assay, E. coli background (repressed) controls. Type of assay: biochemical. The settings on record: crude extract, transgene repressed with 0.02% glucose; rates are minimums.

Chain of E. coli IP kinase (ychB, SEQ ID NO:6), partially purified (P62615 whole entry): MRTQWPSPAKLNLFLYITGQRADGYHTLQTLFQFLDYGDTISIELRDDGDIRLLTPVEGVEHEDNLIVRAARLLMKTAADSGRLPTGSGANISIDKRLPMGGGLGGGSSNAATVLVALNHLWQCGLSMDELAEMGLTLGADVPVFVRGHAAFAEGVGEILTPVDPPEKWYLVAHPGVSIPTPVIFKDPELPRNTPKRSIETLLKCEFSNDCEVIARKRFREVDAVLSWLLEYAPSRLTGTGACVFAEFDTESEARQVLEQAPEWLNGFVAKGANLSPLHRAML
Chain of E. coli IP kinase (ychB, SEQ ID NO:6) (P62615 whole entry): as above

For the molecule `C=C(C)CCOP(=O)(O)O` [IP, isopentenyl monophosphate], the “Total Terpenoids (C10 + C15), rate of incorporation into total monoterpenoids and sesquiterpenoids” value (“Total Terpenoids (C10 + C15), rate” below) in assay [1] is listed as 43 pmol (h 10^5 cell clusters)^-1. Still for that read-out and setting: under `C=C(C)CCO` [ISO, isopentenol] stands 304 pmol (h 10^5 cell clusters)^-1.

Consider `CC(C)=CCO` [DMA, dimethylallyl alcohol], for which, in assay [2], the “Kinase activity with substrate, recombinant peppermint kinase” value is ≤ 0.01 pmol (s g protein)^-1. Further, in assay [3], the “Rate (kinase activity with substrate), E. coli (induced)” value is reported as under 0.01 pmol/s · g protein. For the same molecule, the “Rate (kinase activity with substrate), E. coli (partially purified)” value in assay [4] (Ni2+ affinity-purified enzyme, averages with standard deviation) is on record as 11 ± 5 pmol/s · g protein. For the same molecule, the “Phosphorylating activity with substrate, in words, partially purified E. coli kinase” value in assay [4] is “readily catalyzed the conversion”. Further, in assay [1], the “Total Terpenoids (C10 + C15), rate” value is recorded as “negligible”. In addition, the “Rate (kinase activity with substrate), E. coli (repressed)” value in assay [5] is reported as under 0.01 pmol/s · g protein. `Nc1nc2c(ncn2[C@@H]2O[C@H](COP(=O)(O)OP(=O)(O)OP(=O)(O)O)[C@@H](O)[C@H]2O)c(=O)[nH]1` [GTP]: the “Cofactor / phosphate donor requirement of kinase activity” value (“Cofactor / phosphate donor requirement” below) in assay [4] was “did not serve as alternate phosphate donors”. On to `[Cl-].[Cl-].[Mg+2]` [MgCl2], for which the “Cofactor / phosphate donor requirement” value in assay [4] is on record as “dependent upon the presence”. On to `Nc1ccn([C@@H]2O[C@H](COP(=O)(O)OP(=O)(O)OP(=O)(O)O)[C@@H](O)[C@H]2O)c(=O)n1` [CTP], for which the “Cofactor / phosphate donor requirement” value in assay [4] is reported as “did not serve as alternate phosphate donors”. With `CC(C)=CCOP(=O)(O)O` [DMAP, dimethylallyl monophosphate], the “Total Terpenoids (C10 + C15), rate” value in assay [1] was 6 pmol (h 10^5 cell clusters)^-1 and < 6 pmol (h 10^5 cell clusters)^-1. On to `C=C(C)CCOP(=O)(O)OP(=O)(O)O` [IPP, isopentenyl diphosphate], for which the “Total Terpenoids (C10 + C15), rate” value in assay [1] is recorded as 561 pmol (h 10^5 cell clusters)^-1. As to `O=c1ccn([C@@H]2O[C@H](COP(=O)(O)OP(=O)(O)OP(=O)(O)O)[C@@H](O)[C@H]2O)c(=O)[nH]1` [UTP], in assay [4], the “Cofactor / phosphate donor requirement” value is recorded as “did not serve as alternate phosphate donors”. In the case of `C[C@](O)(CO)[C@H](O)COP(=O)(O)O` [MEP, 2-C-methylerythritol-4-phosphate], the “Kinase activity with substrate, recombinant peppermint kinase” value in assay [2] is “less than 0.2 pmol (s g protein)^-1”. In addition, the “Rate (kinase activity with substrate), E. coli (induced)” value in assay [3] is reported as under 0.2 pmol/s · g protein. For the same molecule, in assay [4], the “Phosphorylating activity with substrate, in words, partially purified E. coli kinase” value was “no phosphorylating activity was detectable”. For the same molecule, in assay [5], the “Rate (kinase activity with substrate), E. coli (repressed)” value was under 0.2 pmol/s · g protein. For the molecule `Nc1ncnc2c1ncn2[C@@H]1O[C@H](COP(=O)(O)OP(=O)(O)OP(=O)(O)O)[C@@H](O)[C@H]1O` [ATP], the “Cofactor / phosphate donor requirement” value in assay [4] is listed as “dependent upon the presence”. Consider `CC(C)=CCOP(=O)(O)OP(=O)(O)O` [DMAPP, dimethylallyl diphosphate], for which the “Total Terpenoids (C10 + C15), rate” value in assay [1] was 4 pmol (h 10^5 cell clusters)^-1 and < 6 pmol (h 10^5 cell clusters)^-1.
